US20250302080A1, “SWEETNESS AND/OR FLAVOR ENHANCER” (AJINOMOTO CO., INC., priority 2022, published 2025)

Experiment: Sensory evaluation of sweetness intensity in sucralose solution (Experimental Examples 23-24)
Conditions: sucralose solution; added alone; 3.0 points or more
Procedure: A negative control sucralose solution (0.0140 wt % sucralose solution) was prepared by dissolving sucralose in filtered water.
A sensory evaluation of sweetness intensity was performed for each sample by a panel of four experts according to the following evaluation criteria.
Sweetness intensity was evaluated by 0.0 to 10.0 point based on the following reference samples (negative control (hereinafter referred to as NC) (0.0 point); reference 1 (hereinafter referred to as R1) (3.0 points), reference 2 (hereinafter referred to as R2) (5.0 points); reference 3 (hereinafter referred to as R3) (10.0 points)). The average score (rounded to two decimal places) of each expert panelist was calculated. An average score of 3.0 points or more was considered to be functional. • NC (0.0 point): 0.0140 wt % sucralose solution (solvent: filtered water) • R1 (3.0 points): 0.0164 wt % sucralose solution (solvent: filtered water) • R2 (5.0 points): 0.0180 wt % sucralose solution (solvent: filtered water) • R3 (10.0 points): 0.0220 wt % sucralose solution (solvent: filtered water)
A sensory evaluation of sweetness intensity was performed for each sample by a panel of four experts according to the same evaluation criteria as in Experimental Example 23.

## CCCCCCCCCC(=O)O [decanoic acid]
  concentration at which a sweetness-enhancing effect was confirmed: 10 ppb
